Reference: patent US20260069529A1 (BLIS TECHNOLOGIES LIMITED, priority 2022, published 2026)

Assays:
Micrococcus luteus Q24 [1] = test: Inhibition by potential prebiotics, spot on lawned CABK12 agar (prebiotic MIC); format: cell-based; details: 24 hours 37° C. 5% CO2; for Suitable to be used in Q24 containing product?: aqueous substances 100% to 0.3%, oils 100% only
Description: CABK12 agar plates were split into segments of 6 and […] suspension of Micrococcus luteus […] raw ingredient. Each of the aqueous potential prebiotic substances to be screened were serially diluted in a range of concentrations from 100% to 0.3% using sterile distilled water. Oil based substances were tested at 100% only. 20 μL of each concentration, of each substance were pipetted into a spot onto one segment of the […]12 agar plate and was incubated for 24 hours at 37° C. 5% CO2 in air.

IL-18 = test: EpiDerm safety and efficacy experiment, cytokine quantification IL-18; format: cell-based, human; details: daily treatment 4 days; Q24 1×10^8 CFU/ml, vitamin C 50 μg/mL
Description: (§1) The remaining 6 tissues, which were destined for histology or else to receive 5% SDS, were grouped together on the sixth cell culture plate. […] Vitamin C (50 μg/mL) was instead delivered in the culture medium. On day 4 conditioned media samples were collected and stored frozen at −80° C. for cytokine measurement. 33 of the tissues were then exposed for 30 μL of 0.5% or 5% SDS in PBS, or to PBS as negative control. […] The remaining 3 tissues (destined for histology) were simply fed fresh medium and given the appropriate main treatment. […] All tissues were gently rinsed with PBS and the 3 histology tissues were fixed in neutral buffered formalin. The viabilities of the other 33 tissues were assessed using the MTT viability assay.
(§2) For quantification of IL-1β, IFN-α2, IFN-γ, TNF-α, MCP-1 (CCL2), IL-6, IL-8 (CXCL8), IL-10, IL-12p70, IL-17A, IL-18, IL-23, and IL-33, bead-based multiplex LEGENDplex™ analysis (LEGENDplex™ Human Inflammation Panel 1 (13-plex); BioLegend, San Diego, CA, USA) was used according to the manufacturer's instructions. The relevance of each of the measured cytokines for which activity was observed is described in Table 6. Reactions were performed in duplicate. Analysis was performed with the Cytek™ Aurora flow cytometer (Cytek Biosciences Inc., Fremont, CA, USA). Data were analysed via Legendplex V8.0 software (BioLegend) and specified as pg/mL.

IL-8 (CXCL8) = test: EpiDerm safety and efficacy experiment, cytokine quantification IL-8; format: cell-based, human; details: daily treatment 4 days; Q24 1×10^8 CFU/ml, vitamin C 50 μg/mL
Description: as §1, §2

IL-6 = test: EpiDerm safety and efficacy experiment, cytokine quantification IL-6; format: cell-based, human
Description: as §1, §2

Micrococcus luteus Q24 [2] = test: Effect of prebiotics on the growth of Micrococcus luteus Q24 in M17 broth; format: cell-based; details: at 24 hours
Description: A batch of M17 broth (Difco #218561) was made, excluding the lactose solution, by following the manufacturer's instructions. 50 ml of broth was dispensed into sterile 100 ml Schott bottles and 2.5 g (5% w/v) of each potential prebiotic substance was added and mixed well using a magnetic stirrer and stir plate. The mixtures were autoclaved at 110° C. for 10 minutes and allowed to cool.
The suspensions of the prebiotic candidates were prewarmed to 40° C. in order to allow for increased homogenisation of any oil-based components prior to dispensing into the wells. 2 ml of each suspension and an M17 only (control) were pipetted into a sterile 24 well tissue culture plate. […] 100 μl of the suspension was pipetted into each well. Once the suspension was added each well was mixed by aspirating and dispensing the solution 5 times with a 1 ml pipette.
Each sample was enumerated at time points 0, 3, 6, 15, 26 and 34 hours using the following method. […] The number of colonies in each spot were then counted using an electronic colony counter and average to give the final result.
The same method was used as described above except the time points tested were 0, 6, 18 and 24 hours. Olive squalene was selected as one of the preferred prebiotics with 3 others that were analysed in combination with olive squalene and compared to the results of the prebiotic candidates alone (FIG. 17).

Row | Compound | Suitable to be used in Q24 containing product? (Micrococcus luteus Q24 [1]) | also measured
1 | CC(O)C(=O)O (centres unmarked) [Lactic acid (LA), Lactic acid] | No | Inhibitory concentration against Micrococcus luteus Q24 (Micrococcus luteus Q24 [1]): > 2.5%
2 | NC(=O)NC1NC(=O)NC1=O (centres unmarked) [Allantoin] | Yes | –
3 | O=C1O[C@H]([C@@H](O)CO)C(O)=C1O [vitamin C, Ascorbic acid] | Yes | IL-18 levels day 4 vs day 0 (IL-18): trend for lower values on day 4; IL-8 levels day 4 vs day 0 (IL-8 (CXCL8)): unchanged; IL-6 levels day 4 vs day 0 (IL-6; daily treatment 4 days, Q24 1×10^8 CFU/ml, vitamin C 50 μg/mL): slight but significant increase on day 4; IL-6 released in response to 0.5% SDS (IL-6; pre-treatment 4 days, day 5 vs day 4): slight increase on day 5
4 | CC(C)=CCC/C(C)=C/CC/C(C)=C/CC/C=C(\C)CC/C=C(\C)CCC=C(C)C [Olive Squalene] | Yes | –
5 | O=C(O)c1ccccc1O [Salicylic acid (SA), Salicylic acid] | No | Inhibitory concentration against Micrococcus luteus Q24 (Micrococcus luteus Q24 [1]): > 5%
6 | NC(=O)c1cccnc1 [Niacinamide] | Yes | –
7 | CC1=C(/C=C/C(C)=C/C=C/C(C)=C/CO)C(C)(C)CCC1 [Retinol (Vitamin A), Retinol] | Yes | –
8 | OC[C@@H](O)[C@H](O)[C@@H](O)CO [Xylitol] | Yes | Effect on live Micrococcus luteus Q24 cell count (Micrococcus luteus Q24 [2]): detrimental
9 | Cc1c(C)c2c(c(C)c1O)CC[C@@](C)(CCC[C@H](C)CCC[C@H](C)CCCC(C)C)O2 [Vitamin E, D Alpha Tocopherol 1000 IU, D Alpha Tocopherol] | Yes | –
10 | Hyaluronic acid | Yes | –
